Data from paper PMC6736866, “Electron cryomicroscopy observation of acyl carrier protein translocation in type I fungal fatty acid synthase” (Scientific Reports, 2019).

Assays:
[1] = molecular target: T1, S. cerevisiae type I fungal fatty acid synthase (FAS) (Saccharomyces cerevisiae, UniProt P07149+P19097); assay: cryoEM structure; assay type: binding; conditions: ER domain (beta chain); Apo state and KS-stalled state
T1 construct: gene FAS1; endogenous alpha6beta6 heterododecamer, native purification by anti-FLAG; C-terminal 3xFLAG on FAS1 (beta) kept; beta 230 kDa, alpha 220 kDa; holo-ACP

[2] = molecular target: T2, C. albicans type I fungal fatty acid synthase (FAS) (Candida albicans, UniProt P34731+P43098); assay: cryoEM structure; assay type: binding; conditions: ER domain (beta chain); Apo state and KS-stalled state
T2 construct: gene FAS1; endogenous alpha6beta6 complex, native purification by anti-FLAG; C-terminal 6xHIS-3xFLAG on FAS1 (beta) kept; holo-ACP

[3] = molecular target: T1, S. cerevisiae type I fungal fatty acid synthase (FAS); assay: cryoEM structure; NADPH oxidation at […] nm; assay type: biochemical; conditions: ER domain near FMN (beta chain); KS-stalled state, 3 mM NADPH, cerulenin-inhibited; weak density, partial binding
[4] = molecular target: T2, C. albicans type I fungal fatty acid synthase (FAS); assay: cryoEM structure; NADPH oxidation at […] nm; assay type: biochemical; conditions: ER domain near FMN (beta chain); KS-stalled state, 3 mM NADPH, cerulenin-inhibited; weak density, partial binding
[5] = molecular target: T1, S. cerevisiae type I fungal fatty acid synthase (FAS); assay type: biochemical

T1 sequence (P07149 whole entry, the tested form may be a part): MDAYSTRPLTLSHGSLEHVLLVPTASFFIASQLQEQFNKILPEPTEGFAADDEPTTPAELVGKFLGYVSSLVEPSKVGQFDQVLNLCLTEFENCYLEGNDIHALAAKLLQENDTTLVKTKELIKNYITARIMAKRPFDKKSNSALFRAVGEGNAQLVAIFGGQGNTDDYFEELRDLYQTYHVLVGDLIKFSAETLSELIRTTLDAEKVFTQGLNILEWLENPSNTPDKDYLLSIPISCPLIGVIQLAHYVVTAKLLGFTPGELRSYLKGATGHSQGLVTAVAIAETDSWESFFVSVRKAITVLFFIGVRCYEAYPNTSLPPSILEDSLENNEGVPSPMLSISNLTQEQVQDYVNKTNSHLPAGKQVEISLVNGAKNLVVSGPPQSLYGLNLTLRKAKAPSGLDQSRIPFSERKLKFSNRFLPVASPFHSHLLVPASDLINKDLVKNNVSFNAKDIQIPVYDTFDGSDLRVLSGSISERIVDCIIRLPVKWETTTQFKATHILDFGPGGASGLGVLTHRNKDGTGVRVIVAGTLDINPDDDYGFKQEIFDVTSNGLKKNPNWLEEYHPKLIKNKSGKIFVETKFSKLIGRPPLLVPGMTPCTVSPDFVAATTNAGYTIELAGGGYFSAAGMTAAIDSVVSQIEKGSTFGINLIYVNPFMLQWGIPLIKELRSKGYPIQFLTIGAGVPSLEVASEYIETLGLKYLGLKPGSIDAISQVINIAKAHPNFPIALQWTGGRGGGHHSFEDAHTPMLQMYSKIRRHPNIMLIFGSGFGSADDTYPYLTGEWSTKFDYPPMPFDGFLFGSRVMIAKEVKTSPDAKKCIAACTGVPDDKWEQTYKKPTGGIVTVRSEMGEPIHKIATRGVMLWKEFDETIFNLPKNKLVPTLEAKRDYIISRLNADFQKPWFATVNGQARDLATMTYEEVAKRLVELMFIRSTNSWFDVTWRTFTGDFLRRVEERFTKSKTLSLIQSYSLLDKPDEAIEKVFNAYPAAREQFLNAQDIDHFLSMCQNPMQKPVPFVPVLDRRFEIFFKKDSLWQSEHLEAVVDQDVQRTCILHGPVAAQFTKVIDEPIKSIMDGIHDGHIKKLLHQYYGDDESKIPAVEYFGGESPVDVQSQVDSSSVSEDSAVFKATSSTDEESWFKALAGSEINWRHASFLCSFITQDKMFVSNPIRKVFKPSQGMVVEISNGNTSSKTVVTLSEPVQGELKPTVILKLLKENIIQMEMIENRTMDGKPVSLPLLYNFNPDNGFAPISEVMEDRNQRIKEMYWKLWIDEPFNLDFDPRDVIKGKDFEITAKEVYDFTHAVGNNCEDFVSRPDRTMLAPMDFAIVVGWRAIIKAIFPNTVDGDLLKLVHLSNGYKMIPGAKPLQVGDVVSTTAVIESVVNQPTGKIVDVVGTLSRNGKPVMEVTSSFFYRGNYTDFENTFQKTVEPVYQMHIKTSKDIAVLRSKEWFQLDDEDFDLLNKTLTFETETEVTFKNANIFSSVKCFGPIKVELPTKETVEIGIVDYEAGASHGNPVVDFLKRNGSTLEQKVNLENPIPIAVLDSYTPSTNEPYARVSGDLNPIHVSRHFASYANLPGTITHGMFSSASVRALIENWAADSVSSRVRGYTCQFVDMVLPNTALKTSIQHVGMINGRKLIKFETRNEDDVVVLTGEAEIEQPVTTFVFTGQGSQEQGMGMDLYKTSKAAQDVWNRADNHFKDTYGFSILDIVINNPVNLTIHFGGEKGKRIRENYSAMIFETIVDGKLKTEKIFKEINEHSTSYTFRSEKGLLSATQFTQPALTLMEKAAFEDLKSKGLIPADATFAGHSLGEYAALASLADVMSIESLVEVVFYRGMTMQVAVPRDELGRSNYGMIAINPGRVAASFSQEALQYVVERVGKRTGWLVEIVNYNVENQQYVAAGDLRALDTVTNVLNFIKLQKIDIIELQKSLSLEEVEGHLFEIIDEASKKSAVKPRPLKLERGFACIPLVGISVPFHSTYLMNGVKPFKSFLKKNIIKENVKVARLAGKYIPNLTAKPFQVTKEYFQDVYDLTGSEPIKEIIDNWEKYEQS
T1 sequence (P19097 whole entry, the tested form may be a part): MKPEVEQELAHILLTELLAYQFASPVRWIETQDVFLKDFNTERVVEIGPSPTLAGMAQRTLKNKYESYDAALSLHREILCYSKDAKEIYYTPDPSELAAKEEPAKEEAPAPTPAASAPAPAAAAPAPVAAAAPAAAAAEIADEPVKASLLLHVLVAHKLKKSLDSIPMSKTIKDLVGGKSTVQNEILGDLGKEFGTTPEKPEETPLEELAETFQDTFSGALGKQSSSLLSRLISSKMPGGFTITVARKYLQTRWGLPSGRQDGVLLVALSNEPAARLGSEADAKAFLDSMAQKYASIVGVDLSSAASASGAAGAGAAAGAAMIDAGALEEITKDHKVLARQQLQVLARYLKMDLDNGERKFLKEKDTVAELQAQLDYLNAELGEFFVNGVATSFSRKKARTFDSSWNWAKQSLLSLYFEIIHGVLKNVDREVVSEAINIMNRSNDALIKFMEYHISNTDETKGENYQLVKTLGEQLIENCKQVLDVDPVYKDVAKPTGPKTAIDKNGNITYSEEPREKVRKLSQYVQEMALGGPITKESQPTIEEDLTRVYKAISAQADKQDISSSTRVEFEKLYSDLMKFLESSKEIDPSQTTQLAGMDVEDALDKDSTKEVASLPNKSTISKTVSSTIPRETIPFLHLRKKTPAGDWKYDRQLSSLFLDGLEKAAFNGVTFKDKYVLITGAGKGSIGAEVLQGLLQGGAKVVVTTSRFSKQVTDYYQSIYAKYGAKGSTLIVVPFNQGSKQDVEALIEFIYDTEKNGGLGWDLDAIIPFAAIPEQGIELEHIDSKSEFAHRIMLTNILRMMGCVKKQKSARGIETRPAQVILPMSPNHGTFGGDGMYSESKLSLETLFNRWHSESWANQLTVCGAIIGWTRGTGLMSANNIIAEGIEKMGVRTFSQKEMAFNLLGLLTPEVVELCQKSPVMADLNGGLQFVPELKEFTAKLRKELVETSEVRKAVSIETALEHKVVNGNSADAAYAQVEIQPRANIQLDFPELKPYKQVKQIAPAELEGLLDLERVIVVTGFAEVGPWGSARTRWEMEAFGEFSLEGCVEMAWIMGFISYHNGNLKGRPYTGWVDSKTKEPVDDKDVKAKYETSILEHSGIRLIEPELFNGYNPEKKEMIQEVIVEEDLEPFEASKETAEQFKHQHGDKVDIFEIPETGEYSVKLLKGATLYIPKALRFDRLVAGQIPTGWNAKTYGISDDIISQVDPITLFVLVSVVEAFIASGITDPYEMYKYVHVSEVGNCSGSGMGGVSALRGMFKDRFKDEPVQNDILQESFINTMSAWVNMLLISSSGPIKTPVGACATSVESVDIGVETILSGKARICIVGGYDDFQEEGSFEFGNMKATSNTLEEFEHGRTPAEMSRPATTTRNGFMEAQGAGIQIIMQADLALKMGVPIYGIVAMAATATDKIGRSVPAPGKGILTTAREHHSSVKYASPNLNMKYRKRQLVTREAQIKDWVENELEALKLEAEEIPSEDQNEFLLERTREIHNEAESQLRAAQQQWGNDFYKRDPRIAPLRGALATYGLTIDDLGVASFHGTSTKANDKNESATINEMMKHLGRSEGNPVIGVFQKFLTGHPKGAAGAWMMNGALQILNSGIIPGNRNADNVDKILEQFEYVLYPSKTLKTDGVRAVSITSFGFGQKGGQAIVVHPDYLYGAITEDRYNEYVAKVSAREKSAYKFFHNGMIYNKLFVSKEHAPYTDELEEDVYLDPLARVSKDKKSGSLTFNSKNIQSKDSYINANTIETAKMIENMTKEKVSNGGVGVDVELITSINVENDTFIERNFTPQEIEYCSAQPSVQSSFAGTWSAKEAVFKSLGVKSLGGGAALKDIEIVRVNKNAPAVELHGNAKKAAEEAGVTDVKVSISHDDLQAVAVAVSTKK

Question: Which cryoEM structure [1] does the source give for `Cc1cc2nc3c(=O)[nH]c(=O)nc-3n(C[C@H](O)[C@H](O)[C@H](O)COP(=O)(O)O)c2cc1C` [flavin mononucleotide] here?
Answer: the catalytic histidine side chain is in a single conformation facing FMN

Question: And the cryoEM structure [2]?
Answer: catalytic histidine can be modeled with two side chain orientations, one facing FMN

Question: How did the “cryoEM structure; NADPH oxidation at 340 nm” value [3] turn out when `NC(=O)C1=CN([C@@H]2O[C@H](COP(=O)(O)OP(=O)(O)OC[C@H]3O[C@@H](n4cnc5c(N)ncnc54)[C@H](OP(=O)(O)O)[C@@H]3O)[C@@H](O)[C@H]2O)C=CC1` [NADPH] was run?
Answer: Weak NADPH density can also be seen in proximity of FMN

Question: And the “cryoEM structure; NADPH oxidation at 340 nm” value [4]?
Answer: Weak density can be seen for the NADPH in proximity of FMN

Question: `C/C=C/C/C=C/CCC(=O)[C@H]1O[C@H]1C(N)=O` [cerulenin] was tested. Which not named [5] did it give?
Answer: are sensitive to cerulenin, a covalent KS-inhibitor
